Experimental data reported in article PMC3923778 (PLoS Currents, 2014).
“Also recorded” adds a separate entry of the source.

Key:
R6/2 mice = assay: T2-MRI brain volumetry; type: in vivo, mouse; conditions: chronic administration, 13 weeks
Method: MRI analysis was performed for all mice at the age of 13 weeks in a horizontal 7T magnet with bore size 160 mm (Magnex Scientific Ltd., Oxford, UK) equipped with Magnex gradient set (max. gradient strength 400 mT/m, bore 100 mm) interfaced to a Varian DirectDrive console (Varian, Inc., Palo Alto, CA) using a volume coil for transmission and surface phased array coil for receiving (Rapid Biomedical GmbH, Rimpar, Germany). Isoflurane -anesthetized mice were fixed to a head holder and positioned in the magnet bore in a standard orientation relative to gradient coils. Rectal temperature (TC-1000 Temperature Controller, CWE Inc., Ardmore, PA, USA) and respiration (ECG Trigger Unit, Rapid Biomedical GmbH) were monitored throughout the study and the body temperature was kept at 36-37°C. […]
All values are presented as mean ± Standard Error of Mean (SEM), and differences are considered to be statistically significant at the p < 0.05 level. […] Differences between group means were analyzed by 1-way-ANOVA followed by Dunnett’s test (comparison to the control (=vehicle treated TG mice) group). The acquisition of the Cued two-choice swim test was analyzed using Fisher’s exact test.

[1] = test system: cGMP levels in the striatum; assay: Microdialysis PD: cGMP in striatal extracellular dialysate; type: in vivo, mouse; conditions: male R6/2
Method: Microdialysis PK/PD studies were conducted at Brains Online, Inc. (San Francisco, CA, USA)
Male R6/2 (CBA/C57Bl/6 strain, CAG 120) mice aged 7-8 weeks (20 - 30 g; The Jackson Laboratory, USA) were used for the experiments. The animals were group housed in plastic cages (3-4 animals / cage) and had access to food and water ad libitum. Experiments were conducted in accordance with the declarations of Helsinki and were approved by the Institutional Animal Care and Use Committee of the University of California, San-Francisco.
Mice were anesthetized using isoflurane (2%, 800 mL/min O2). Bupivacain/epinephrine was used for local anesthesia. Carprophen was used peri-/post-operative as analgesia. The animals were placed in a stereotaxic frame (Kopf instruments, USA), and microdialysis probes were inserted into the striatum. Coordinates for the tips of the probes were for striatum: […] (AP) = +0.8 mm to bregma, lateral (L) = -1.7 mm to midline and ventral (V) = -4.0 mm to dura, the toothbar was set at 0.0 mm (Paxinos and Franklin, 2001). […] After surgery animals were kept individually in cages and provided food and water ad libitum. Animals were fasted the night before the experiment.
Experiments were performed one day after surgery. On the day of the experiment, the probes of the animals were connected with flexible PEEK tubing to a microperfusion pump (Syringe pump UV 8301501, Univentor, Malta). MQ probes were perfused with aCSF containing 0.2% albumin at a flow rate of 0.10 µL/min. As the carrier flow, ultrapurified H2O was used at a flow rate of 0.70 µL/min. I-shaped probes were perfused with aCSF at a flow rate of 1.5 µL/min. Microdialysis samples were collected for 30-minute periods by an automated fraction collector (CMA 142, Sweden) into mini-vials. Samples originating from I-shaped probes were collected into mini-vials already containing 15 µL of 0.02 M formic acid. 10 µL of 0.02 M formic acid was added in the samples originating from MQ probes. […] Following compound administration, microdialysate samples continued to be collected for 240 min at 30 minute intervals. All dialysis samples were stored at -80 °C.
Concentrations of cGMP were determined by HPLC with tandem mass spectrometry (MS/MS) detection. Standard samples were prepared in artificial dialysate matrix, consisting of 3 parts (v/v) aCSF mixed with 1 part 0.02M formic acid in ultrapurified H2O. Final concentrations of standard samples were 0.02, 0.05, 0.1, 0.2, 0.5, 1, 2, 5 and 10 nM. Quality control (QC) samples were prepared independently. Final concentrations were 0.3 (QClow), 0.75 (QCmid) and 7.5 (QChigh) nM. […]
Treatment effects were evaluated among different drug concentrations and also compared to baseline, using two-way ANOVA for repeated measurements followed by Student-Newman-Keuls post-hoc test. […]

[2] = parameters: method as in PMID 8961086; conditions: rats; ref [27]; read-out: plasma Cmax exposure; cited from earlier work

CN1C(=O)c2nc(Cc3ccc(C(F)(F)F)cc3)[nH]c2N2C1=N[C@H]1CCC[C@H]12 [SCH-51866, (+)-cis-5,6a,7,8,9,9a-hexahydro-2-[4-[trifluro-methyl]phenylmethyl]-5-methyl-cylopent[4,5]imidazo [2,1-b]purin-4(3H)one]
brain volume, cortex (MRI) (R6/2 mice): no improvement in brain volume | brain volume, striatum (MRI) (R6/2 mice): no improvement in brain volume | Elevation in cGMP in extracellular dialysate over baseline ([1]; 3 mg/kg po acute): not | Elevation in cGMP in extracellular dialysate over baseline ([1]; 10 mg/kg po acute): significantly elevated cGMP levels; also recorded: significant over baseline | Elevation in cGMP in extracellular dialysate over baseline ([1]; 30 mg/kg po acute): significantly elevated cGMP levels; also recorded: significant over baseline | accumulation of cGMP versus dose ([1]; acute po): increased dose-proportionally | Cmax [2]: 2.37 to 3.8 µM
